Series [1] concerns L. m. amazonensis. The experiment in a line: Experimental cutaneous leishmaniosis, early stage lesions treated every 12 h. It is filed as in vivo, Balb/c mice. As to the method:
(§1) Balb/c mice were experimentally infected with L. m. amazonensis promastigotes by intradermal injection in the footpads and six weeks later they were treated with the test compounds by intraperitoneal route. The product 2-bromo-5-(2-bromo-2-nitrovinyl)-furan was administered at a dose of 5 mg/Kg; the 2-bromo-5-(2-methyl-2-nitrovinyl)-furan, at 50 mg/Kg and Amphotericin B, at 1 mg/Kg. Animals were daily dosed for 14 days. Miglyol 810, the vehicle used for the β-nitrovinylfuran derivatives, was similarly administered to a group of mice.
The experiment was essentially carried out in a similar way as the one described above. However, 2-bromo-5-(2-bromo-2-nitrovinyl,-furan was administered at a dose of 2 mg/Kg and 2-bromo-5-(2-methyl-2-nitrovinyl)-furan at 100 mg/Kg. Treatments were administered by intraperitoneal route, but every 12 h instead of 24 h.

A short description of series [2]: Toxicological studies (LD50, LD0, MTD), intraperitoneal. Format: in vivo, female Balb/c mice. Particulars: for MTD at 14 days: female, Balb/c. As to the method:
The same animal model used for in vivo anti-leishmanial tests was used to perform comparative toxicological studies of the β-nitrovinylfuran derivatives. The main excipient of the compositions used with this purpose was the sunflower oil. The mean lethal doses (LD50) of each β-nitrovinylfuran derivative and Amphotericin B were estimated in female Balb/c mice (18-20g body weight), treated by a single intraperitoneal injection. The maximal non-lethal doses (LD0) were calculated from the dose-mortality curves. The maximal tolerated doses (MTD, maximal dose causing neither mortality nor body weight losses over 10% respect to the initial weight) by repeated intraperitoneal administration every 12 or 24 h during 14 days were determined as well.

For series [3], the system named is L. donovani infantum promastigotes. The experiment in a line: In vitro activity against Leishmania promastigotes (infantum). On the set-up: CP100: unit not given here. Format: cell-based. As to the method: (§2) Mean inhibitory concentrations (Cl50%) against L. mexicana amazonensis, L. donovani infantum and L. braziliensis braziliensis promastigotes were determined according to the method described by Bodley A L et al (J Infect Dis 1995; 172(4):1157-9.). Minimal parasiticidal concentrations (CP100, minimal concentrations capable of abolishing the motility of all parasites in the culture) were also determined. Amphotericin B and Glucantime® were tested as reference drugs.

The subject of the next series is cutaneous leishmaniosis. Briefly: Treatment of human cutaneous leishmaniosis, topical ointment. It is filed as in vivo. Particulars: oily ointment 0.15%, topical once a day, 21 days. As to the method:
One hundred patients with parasitological diagnose of cutaneous leishmaniosis were treated. Patients were topically treated, once a day, for 21 days with an oily ointment containing 0.15% 2-bromo-5-(2-bromo-2-nitrovinyl)-furan as active ingredient and petrolatum as the main excipient.

Series [4] concerns L. m. amazonensis. The experiment in a line: Experimental cutaneous leishmaniosis, chronic lesions treated every 12 h. It is filed as in vivo, Balb/c mice. The method, then: Mice developed chronic leishmanial lesions at eighteen weeks post-infection. Lesions were ulcerated and covered with a thick crust. The average dorso-plantar diameter of the infected foot was 1.23±0.24 cm and the lateral diameter was 1.24±0.19 cm. At that stage the treatment started twice a day with either 2-bromo-5-(2-bromo-2-nitrovinyl)-furan at 2 mg/Kg; 2-bromo-5-(2-methyl-2-nitrovinyl)-furan at 50 mg/Kg or Amphotericin B at 5 mg/Kg every other day. A control group formed by infected non-treated mice was also included in the experiment. All drugs were administered by intraperitoneal route for 14 days. […] Amphotericin B was not effective, since neither the dorso-plantar nor the lateral diameters differed statistically from the lesions of the control group (P>0.05).

In series [5] the test system is trypomastigotes of T. cruzi. The experiment in a line: In vitro activity against Trypanosoma cruzi. Format: cell-based. As to the method: The in vitro activity of the β-nitrovinylfuran derivatives was tested against trypomastigotes of T. cruzi grown in a rat myoblast cell line. Minimal parasiticidal concentrations (minimal concentration that immobilizes all the parasites in the culture) and mean inhibitory concentrations (concentration that reduces the number of parasites to 50% of those found in the un-treated control cultures) were determined according to Buckner's method (Antimicrob Agents Chemother 1996; 40(11):2592-7).

Series [6] deals with L. m. amazonensis. Briefly: Experimental cutaneous leishmaniosis, early stage lesions treated every 24 h. It is filed as in vivo, Balb/c mice. Particulars: D 5 mg/Kg. The method, then: as §1
Series [7] has as its system L. mexicana amazonensis promastigotes. The experiment in a line: In vitro activity against Leishmania promastigotes (amazonensis). It is filed as cell-based. Also on record: CP100: unit not given here. As to the method:
as §2

Series [8] deals with L. braziliensis braziliensis promastigotes. The experiment in a line: In vitro activity against Leishmania promastigotes (braziliensis). Format: cell-based. On the set-up: CP100: unit not given here. As to the method: as §2
The mark [9] stands for this setting: minimal parasiticidal concentration.

Converted amounts (≈) assume the structure as drawn. “And” between values parts separate entries of the source, which are not always exact repeats. Equal entries are not always repeated. Where two headings read alike, the source gives them in different places.

One may read the LD50 as the dose at which mortality reaches 50%.

For `O=[N+]([O-])C(Br)=Cc1ccc(Br)o1` [D, 2-bromo-5-(2-bromo-2-nitrovinyl)-furan], the lesion size result in the series on L. m. amazonensis [1] (first week of treatment, 2 mg/Kg i.p. every 12 h, P<0.001 vs control) is on record as “decreased during the first week of treatment”; in the series on L. m. amazonensis [1] (seven days after finishing treatment, P<0.05), “smaller than those of controls”; with L. m. amazonensis [4] (by the end of treatment (14 days)), “decrease of lesion size”. Further, in the series with L. m. amazonensis [1] (i.p. every 12 h), the “activity compared with Amphotericin B” value was “higher activity than Amphotericin B”. Further, in the series on L. m. amazonensis [1] (i.p. every 12 h, D 2 mg/Kg, F 100 mg/Kg), the lesion growth rate entry is “significantly lower compared to controls”. Also, the MTD at 14 days was 2 to 3 mg/kg in series [2] (mouse, in vivo, ip, repeated intraperitoneal administration every 12 h during 14 days, read-out: MTD (every 12 h)) and 5 mg/kg in series [2] (mouse, in vivo, ip, repeated intraperitoneal administration every 24 h during 14 days, read-out: MTD (every 24 h)). The LD0 in [2] (maximal non-lethal dose calculated from dose-mortality curves, single i.p. injection) is 15 mg/kg. In addition, in series [2] (mouse, in vivo, ip, single intraperitoneal injection, female Balb/c mice, read-out: LD50), the LD50 came to 24 mg/kg. The IC50 in series [3] (Leishmania donovani, mean inhibitory concentration, read-out: CI50 (the source's name)) was 0.35 µg/mL (≈ 1.18 µM); in [5] (Trypanosoma cruzi, T. cruzi trypomastigotes grown in rat myoblast cell line, read-out: CI50 (the source's name)), 4.1 µg/mL and 13.9 µM; in [7] (Leishmania mexicana, mean inhibitory concentration, read-out: CI50 (the source's name)) it was 0.25 µg/mL (≈ 0.842 µM); in series [8] (Leishmania braziliensis, mean inhibitory concentration, read-out: CI50 (the source's name)), 0.26 µg/mL (≈ 0.876 µM). In addition, the CP100 in [3] (setting [9]) is 0.86; in series [5] (minimal concentration that immobilizes all parasites) it was 10.0 μg/mL and 33.7 μM; in series [7] (minimal parasiticidal concentration abolishing motility of all parasites), 1.53; in series [8] (setting [9]), 0.49. The side effects entry in the series with cutaneous leishmaniosis is given as “did not evidence any side effect that impeded the continuation of therapy”. Moreover, in the series with cutaneous leishmaniosis (one hundred patients), the “patients with total cure of the cutaneous lesions” value was determined as 90%. Besides, the “dorso-plantar diameter versus control” value in the series with L. m. amazonensis [4] (by the end of treatment) is recorded as “significantly different”. In addition, the “dorso-plantar diameter of the infected foot” value with L. m. amazonensis [4] (first week of treatment, P<0.05 vs control) is listed as “decrease of the dorso-plantar diameter”. In addition, in the series on L. m. amazonensis [4] (first week of treatment, P>0.05), the “lateral diameter of the lesions” value is given as “comparable to the diameter of control mice”. For the same molecule, the “lesion evolution versus controls” value in the series on L. m. amazonensis [6] (during and after 14 days treatment, Amphotericin B 1 mg/Kg) was “remained for two other weeks after treatment had finished”. The lesion growth entry in the series with L. m. amazonensis [6] (first week of treatment, i.p. daily, F 50 mg/Kg) is “minimal lesion growth”.

The values are drawn from US20090042978A1, “Pharmaceutical Compositions Containing Nitrovinylfuran Derivatives for the Treatment of Leishmaniosis and Trypanosomosis” (CENTRO DE BIOACTIVOS QUIMICOS, priority 2005, published 2009).
